Results on six compounds are retold here after ChEMBL document CHEMBL5096205, “Lysine Covalent Antagonists of Melanoma Inhibitors of Apoptosis Protein” (J Med Chem, 2021).

Assay [1] is filed under the species Homo sapiens. The assay can be described thus: Binding affinity to N-terminal His-tagged ML-IAP K135A mutant (63 to 179 residues) (unknown origin) expressed in Escherichia coli BL21 assessed as change in melting temperature at 20 uM incubated for 2 hrs followed by heating at 40 to 70 degree C for 30 mins by SYPRO orange dye based thermal shift assay. Conditions: time 150.0 min.

The test system of assay [2] is SK-MEL-28. The assay can be described thus: Induction of apoptosis in human SK-MEL-28 cells assessed as increase in caspase-3/7 activity measured up to 48 hrs in presence of 0.1 ng/mL TNFlpha by IncuCyteS3 caspase-3/7 fluorescence-based apoptosis assay. The class given is functional, cell-based. The note with it: dose 0.1-10 µM, DDE = dose-dependent effect.
Assay [3] deals with SK-MEL-28. Nature of the assay: Induction of apoptosis in human SK-MEL-28 cells assessed as increase in caspase-3/7 activity at 0.1 to 10 uM in presence of 0.1 ng/mL TNFlpha by IncuCyteS3 caspase-3/7 fluorescence-based apoptosis assay. The class given is functional, cell-based. The note with it: dose 0.1-10 µM, time <= 48.0 hrs, TDE = time-dependent effect.
Assay [4] addresses Baculoviral IAP repeat-containing protein 2 (Homo sapiens, UniProt Q13490). The assay can be described thus: Antagonist activity at N-terminal His-tagged cIAP1-BIR3 domain (unknown origin) expressed in Escherichia coli BL21 using AVPIAQKSEK-biotinylated peptide as substrate incubated for 2 hrs by DELFIA assay.
Assay [5] deals with E3 ubiquitin-protein ligase XIAP (Homo sapiens, UniProt P98170). Nature of the assay: Antagonist activity at N-terminal His-tagged XIAP-BIR3 domain (253 to 347 residues)(unknown origin) expressed in Escherichia coli BL21 using AVPIAQKSEK-biotinylated peptide as substrate incubated for 2 hrs by DELFIA assay.
Chain of E3 ubiquitin-protein ligase XIAP (P98170 whole entry, the tested form may be a part): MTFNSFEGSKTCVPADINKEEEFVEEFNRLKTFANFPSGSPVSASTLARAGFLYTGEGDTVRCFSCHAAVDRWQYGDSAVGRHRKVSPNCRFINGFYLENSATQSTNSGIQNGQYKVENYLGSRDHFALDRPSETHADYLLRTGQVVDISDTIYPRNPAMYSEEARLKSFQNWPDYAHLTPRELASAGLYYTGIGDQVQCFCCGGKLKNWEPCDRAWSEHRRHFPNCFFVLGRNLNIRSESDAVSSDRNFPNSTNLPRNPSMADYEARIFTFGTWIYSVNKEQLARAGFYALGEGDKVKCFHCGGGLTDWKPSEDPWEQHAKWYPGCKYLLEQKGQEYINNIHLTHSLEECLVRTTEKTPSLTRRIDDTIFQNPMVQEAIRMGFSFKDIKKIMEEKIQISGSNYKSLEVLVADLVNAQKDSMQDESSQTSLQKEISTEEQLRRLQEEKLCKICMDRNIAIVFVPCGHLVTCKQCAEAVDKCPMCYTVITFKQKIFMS
Assay [6] deals with T1, Baculoviral IAP repeat-containing protein 7 (Homo sapiens, UniProt Q96CA5).
T1 sequence (Q96CA5 whole entry): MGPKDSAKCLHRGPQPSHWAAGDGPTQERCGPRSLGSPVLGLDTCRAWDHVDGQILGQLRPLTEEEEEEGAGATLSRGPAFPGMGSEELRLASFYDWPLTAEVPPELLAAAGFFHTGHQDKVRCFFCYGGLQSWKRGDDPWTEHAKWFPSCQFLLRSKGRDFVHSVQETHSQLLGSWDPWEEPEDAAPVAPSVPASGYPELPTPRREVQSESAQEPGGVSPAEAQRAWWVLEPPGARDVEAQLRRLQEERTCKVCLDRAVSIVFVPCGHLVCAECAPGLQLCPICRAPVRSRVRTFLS
The assay can be described thus: Antagonist activity at N-terminal His-tagged wild type ML-IAP BIR domain (63 to 179 residues) (unknown origin) expressed in Escherichia coli BL21 using AVPIAQKSEK-biotinylated peptide as substrate incubated for 2 hrs by DELFIA assay.

Assay [7] addresses Baculoviral IAP repeat-containing protein 3 (Homo sapiens, UniProt Q13489). The assay can be described thus: Antagonist activity at N-terminal His-tagged cIAP2-BIR3 domain (unknown origin) expressed in Escherichia coli BL21 using AVPIAQKSEK-biotinylated peptide as substrate incubated for 2 hrs by DELFIA assay.
The target in assay [8] is T1, Baculoviral IAP repeat-containing protein 7. Nature of the assay: Antagonist activity at N-terminal His-tagged wild type ML-IAP BIR domain (63 to 179 residues)(unknown origin) expressed in Escherichia coli BL21 using AVPIAQKSEK-biotinylated peptide as substrate preincubated for 2 hrs with protein followed by substrate addition measured after 2 hrs by DELFIA assay.
For assay [9], the target named is T2, Baculoviral IAP repeat-containing protein 7 (Homo sapiens) (UniProt Q96CA5).
T2 sequence (whole entry): T1 sequence (Q96CA5 whole entry)
The note with it: dose 20.0 µM, time 150.0 min.

Molecules are shown by their SMILES.

Chain of Baculoviral IAP repeat-containing protein 3 (Q13489 whole entry, the tested form may be a part): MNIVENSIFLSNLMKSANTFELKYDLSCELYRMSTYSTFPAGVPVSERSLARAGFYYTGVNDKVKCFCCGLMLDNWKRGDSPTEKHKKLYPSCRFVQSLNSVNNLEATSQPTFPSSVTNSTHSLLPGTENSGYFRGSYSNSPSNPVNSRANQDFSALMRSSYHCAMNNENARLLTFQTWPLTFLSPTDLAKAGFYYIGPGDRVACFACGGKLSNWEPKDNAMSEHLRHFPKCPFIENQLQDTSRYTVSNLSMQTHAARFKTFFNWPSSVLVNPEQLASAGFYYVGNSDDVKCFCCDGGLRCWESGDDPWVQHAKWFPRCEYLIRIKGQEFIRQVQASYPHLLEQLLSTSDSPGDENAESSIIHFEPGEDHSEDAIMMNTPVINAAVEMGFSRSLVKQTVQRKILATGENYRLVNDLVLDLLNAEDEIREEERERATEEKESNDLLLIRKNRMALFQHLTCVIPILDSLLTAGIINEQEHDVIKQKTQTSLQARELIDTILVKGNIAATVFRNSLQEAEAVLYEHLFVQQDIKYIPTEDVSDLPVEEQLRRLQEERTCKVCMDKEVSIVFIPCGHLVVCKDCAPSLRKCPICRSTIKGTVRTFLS
Chain of Baculoviral IAP repeat-containing protein 2 (Q13490 whole entry, the tested form may be a part): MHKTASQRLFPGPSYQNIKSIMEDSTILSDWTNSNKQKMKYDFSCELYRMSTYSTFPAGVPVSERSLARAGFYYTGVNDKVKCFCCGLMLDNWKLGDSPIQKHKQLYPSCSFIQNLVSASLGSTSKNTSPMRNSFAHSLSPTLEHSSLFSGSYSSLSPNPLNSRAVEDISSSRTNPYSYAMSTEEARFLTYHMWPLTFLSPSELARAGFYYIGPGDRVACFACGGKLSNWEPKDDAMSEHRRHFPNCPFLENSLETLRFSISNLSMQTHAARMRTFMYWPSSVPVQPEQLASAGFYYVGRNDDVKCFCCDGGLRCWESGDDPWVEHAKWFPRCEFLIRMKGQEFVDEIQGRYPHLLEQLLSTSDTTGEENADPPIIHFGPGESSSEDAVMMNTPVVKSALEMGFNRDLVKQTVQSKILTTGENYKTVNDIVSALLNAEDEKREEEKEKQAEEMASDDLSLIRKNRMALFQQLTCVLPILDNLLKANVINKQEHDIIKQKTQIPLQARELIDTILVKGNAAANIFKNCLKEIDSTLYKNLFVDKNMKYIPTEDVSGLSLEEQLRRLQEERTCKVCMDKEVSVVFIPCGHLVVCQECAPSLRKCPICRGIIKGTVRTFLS

In general, ΔTm refers to the change in melting temperature against a reference sample. With `CN[C@@H](C)C(=O)N[C@@H](CNC(=O)c1cc(S(=O)(=O)F)ccc1OC)C(=O)N1CCC[C@H]1C(=O)N[C@@H]1CCc2ccccc21`, in assay [1], the ΔTm was 6.2 °C. For the same compound, the Activity result is “Dde” in [2] and “Tde” in [3].
Regarding `CN[C@@H](C)C(=O)N[C@@H](CNC(=O)c1cc(S(=O)(=O)O)ccc1OC)C(=O)N1CCC[C@H]1C(=O)N[C@@H]1CCc2ccccc21`, the ΔTm in [1] stood at 4.7 °C.
Usually IC50 stands for the concentration that inhibits the measured activity by half. A higher IC50 goes with weaker potency in that assay. With `CN[C@@H](C)C(=O)N[C@@H](CNC(=O)c1cccc(S(=O)(=O)F)c1)C(=O)N1CCC[C@H]1C(=O)NC1Cc2ccccc2C1`, the half-maximal inhibitory concentration (IC50) in assay [4] was above 1 µM; in assay [5], above 2.5 µM; in assay [6] it was above 1 µM; in assay [7] it was above 1.5 µM.
For the compound `CN[C@@H](C)C(=O)N[C@@H](CNC(=O)c1cc(S(=O)(=O)F)ccc1OC)C(=O)N1CCCC[C@H]1C(=O)N[C@@H](Cc1ccccc1)C(N)=O`, the figures for the IC50 in [5] and in [7] were above 2.5 µM and above 2 µM, respectively.
In assay [5], `CN[C@@H](C)C(=O)N[C@@H](CNC(=O)c1cc(S(=O)(=O)F)ccc1OC)C(=O)N1CCC[C@H]1C(=O)N[C@@H]1CCc2c(F)cccc21` returned an IC50 above 1 µM.
With `CN[C@@H](C)C(=O)N[C@H](C(=O)N1CCC[C@H]1c1nc(C(=O)c2ccc(F)cc2)cs1)C1CCCCC1` [LCL-161], the IC50 in assay [8] worked out at 0.015 µM; in assay [6], 0.009 µM. Further, the ΔTm is 14.5 °C in assay [1] and 12.6 °C in assay [9]. In addition, the values for the Activity result in assay [2] and in assay [3] were “Dde” and “Tde”, respectively.
